Results filed as inconclusive are left out. Calls of active or inactive are those of the source. The rule behind the calls is not given here.
What follows are compounds tested against Protein AF-9 (Homo sapiens) (UniProt P42568) (assay: AF9 binding to AF4 blockers, potency – biochemical, cherry-picked samples, plate reader, dose response (AID 720495)). Settings: biochemical protein-protein interaction assay.
Protein AF-9 (Homo sapiens), sequence (P42568 whole entry, looked up): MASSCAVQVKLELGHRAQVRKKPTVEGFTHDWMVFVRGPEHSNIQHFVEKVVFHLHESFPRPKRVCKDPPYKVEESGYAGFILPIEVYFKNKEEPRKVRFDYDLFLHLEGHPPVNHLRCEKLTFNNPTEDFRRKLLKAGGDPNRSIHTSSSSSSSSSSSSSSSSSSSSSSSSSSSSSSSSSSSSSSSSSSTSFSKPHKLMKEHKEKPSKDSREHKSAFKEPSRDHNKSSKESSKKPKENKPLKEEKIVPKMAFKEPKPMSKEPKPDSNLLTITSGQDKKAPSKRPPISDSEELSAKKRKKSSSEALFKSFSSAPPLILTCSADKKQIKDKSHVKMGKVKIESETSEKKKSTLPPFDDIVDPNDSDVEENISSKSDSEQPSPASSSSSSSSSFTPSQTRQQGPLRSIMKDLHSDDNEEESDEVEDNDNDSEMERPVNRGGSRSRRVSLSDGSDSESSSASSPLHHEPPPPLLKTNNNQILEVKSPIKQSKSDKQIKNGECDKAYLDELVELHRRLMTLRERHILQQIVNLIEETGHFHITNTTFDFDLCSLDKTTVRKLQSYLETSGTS

Question: For CN1CCN(C(c2ccc(Cl)cc2)c2cc(Cl)c3cccnc3c2O)CC1 (configuration not stated), which AC50 is on record?
Answer: 984 nM

Question: How did the AC50 turn out when CN1CCN(CCCCOc2ccccc2C=O)CC1 was run?
Answer: 10600 nM

Question: How did the AC50 turn out when N#C/C(C(N)=O)=c1/ccc2c(c1)N1C3=C(CCCC3)CC3CCCCC31N=2 (configuration not stated) was run?
Answer: 767 nM

Question: How did the AC50 turn out when COc1ccc(NC2=C(NCCO)C(=O)c3ccccc3C2=O)cc1 was run?
Answer: 4370 nM

Question: Which AC50 does the source give for Oc1c(C(c2ccccc2Cl)N2CCCC2)ccc2cccnc12 (configuration not stated) here?
Answer: 995 nM

Question: With Cc1c(P(=S)(c2ccccc2)c2ccccc2)[n+]2ccccc2n1C as the compound, how does the AC50 read?
Answer: 7980 nM

Question: With Cc1ccn2c(Nc3ccc4c(c3)OCO4)c(-c3ccccn3)nc2c1 as the compound, how does the AC50 read?
Answer: 3550 nM

Question: Which AC50 does the source give for COCCN=c1scc(-c2ccco2)n1/N=C/c1ccc(O)c(O)c1O here?
Answer: 538 nM

Question: Which AC50 does the source give for CN(C)c1ccc2nc3ccc(=O)cc-3sc2c1 here?
Answer: 11300 nM

Question: Which AC50 does the source give for O=C(N/N=C/c1c(O)ccc2ccccc12)c1ccc[n+](CCO)c1 here?
Answer: 257 nM

Question: CCOc1ccc(NCc2cccn2-c2nnc(N3CCC(C(=O)NCCCN4CCCCC4CC)CC3)s2)cc1 (configuration not stated) was tested. Which AC50 did it give?
Answer: 4010 nM

Question: With Cc1ccnc(NC(c2cccnc2)c2ccc3cccnc3c2O)c1 (configuration not stated) as the compound, how does the AC50 read?
Answer: 808 nM

Question: For C[C@@H]1CCCCO[C@H](CN(C)Cc2ccc(Cl)c(Cl)c2)[C@@H](C)CN([C@H](C)CO)C(=O)c2cc(N(C)C)ccc2O1, which AC50 is on record?
Answer: 10100 nM

Question: Oc1c(C(c2ccccn2)N2CCCCC2)cc(Cl)c2cccnc12 (configuration not stated) was tested. Which AC50 did it give?
Answer: 1840 nM

Question: CC(=O)OCCNc1cc(N2CCN(C)CC2)c2noc3c2c1C(=O)c1ccccc1-3 was tested. Which AC50 did it give?
Answer: 1940 nM

Question: For CCCC(=O)NC(c1ccc(OC)cc1)c1ccc2cccnc2c1O (configuration not stated), which AC50 is on record?
Answer: 865 nM

Question: Which AC50 does the source give for C[C@H]1CCCCO[C@H](CN(C)Cc2ccc(Cl)c(Cl)c2)[C@@H](C)CN([C@@H](C)CO)C(=O)c2cc(N(C)C)ccc2O1 here?
Answer: 10600 nM

Question: Which AC50 does the source give for CC[C@H](C)[C@@H]1NC(=O)c2cc([N+](=O)[O-])cc(F)c2NCCCC[C@@H](C(N)=O)NC(=O)[C@H](CCCCN)NC1=O here?
Answer: 9360 nM

Question: O=C1c2cccc(NCCNCCO)c2C(=O)c2cccc(NCCNCCO)c21 was tested. Which AC50 did it give?
Answer: 6880 nM

Question: Which AC50 does the source give for C#CCOCCOCCOCCNc1nc(N2CCN(C(=O)[C@H](CCCCN)n3cc(CN)nn3)CC2)nc(N2CCN(C(=O)[C@H](CCCN=C(N)N)n3cc(C(N)[C@H](C)CC)nn3)CC2)n1 (some centres not stated) here?
Answer: 2810 nM

Question: With O=C(COc1ccc2ccc(=O)oc2c1)Nc1ccc(N2CCCCC2)cc1 as the compound, how does the AC50 read?
Answer: 9560 nM

Question: Which AC50 does the source give for CN(CCc1ccccc1)C(=O)c1ccc(NC(=O)Cc2ccc(NC(=O)C3CCN(C(=O)C4CCCC4)CC3)cc2)cc1 here?
Answer: < 80 nM

Question: How did the AC50 turn out when COc1cccc(NC2=C(NCCO)C(=O)c3ccccc3C2=O)c1 was run?
Answer: 6380 nM

Question: How did the AC50 turn out when Cc1c(C(=O)NCC(c2ccco2)N(C)C)oc2c(Cl)cccc12 (configuration not stated) was run?
Answer: 7770 nM

Question: Which AC50 does the source give for CC[n+]1c(/C=C/C=C/c2ccc(N(C)C)cc2)sc2ccccc21 here?
Answer: 522 nM

Question: With CN(C)c1ccc(/C=C/c2cc[n+](C)c3ccccc23)cc1 as the compound, how does the AC50 read?
Answer: 1050 nM

Question: How did the AC50 turn out when CN(C)c1ccc(C=c2c3ccccc3n3c2cc(-c2ccccc2)[n+]3C)cc1 was run?
Answer: 2430 nM

Question: For COc1ccc(N2CCN(CCCNC(=O)CCC(=O)N3CCOc4ccc(Cl)cc43)CC2)cc1, which AC50 is on record?
Answer: 11400 nM

Question: Which AC50 does the source give for COc1cc(O)c(C(CCN2CCCCC2)c2ccc(N(C)C)cc2)c(OC)c1 (configuration not stated) here?
Answer: 10200 nM

Question: How did the AC50 turn out when O=C(c1ccc(-c2cc(O)c3ncccc3c2)cc1)N1CCNCC1 was run?
Answer: 426 nM

Question: Which AC50 does the source give for CN(C)c1ccc(CNCCC(Cc2ccccc2)c2ccco2)cc1 (configuration not stated) here?
Answer: 5440 nM

Question: For CN(C)c1ccc(/C=C/C=C/c2sc3ccccc3[n+]2C)cc1, which AC50 is on record?
Answer: 2090 nM

Question: With C#CCOCCOCCOCCNc1nc(N2CCN(C(=O)[C@H](CCCN=C(N)N)n3cc(C(N)[C@@H](C)CC)nn3)CC2)nc(N2CCN(C(=O)[C@H](CCCCN)n3cc([C@@H](N)[C@H](C)CC)nn3)CC2)n1 (some centres not stated) as the compound, how does the AC50 read?
Answer: 3600 nM

Question: With CC(C)(C)C1=CC(=Nc2ccccc2N)C=C(C(C)(C)C)C1=O as the compound, how does the AC50 read?
Answer: 761 nM

Question: For CS(=O)(=O)N1CCCCN2[C@H](C1)[C@H](c1ccc(C#Cc3ccccn3)cc1)[C@@H]2CO, which AC50 is on record?
Answer: 7820 nM

Question: With CN(C)c1ccc(N=Cc2cccn2C)cc1 as the compound, how does the AC50 read?
Answer: 830 nM

Question: How did the AC50 turn out when CN1CCN(c2ccc(N)cc2Cl)CC1 was run?
Answer: 2110 nM

Same assay, conditions: biochemical protein-protein interaction assay, at 10 µM (top of the series)

Question: CC(C)N1C(=O)/C(=C\c2nc3ccccc3c(=O)[nH]2)c2ccccc21 was tested. Which “activity change, negative = inhibition” value did it give?
Answer: inactive

Question: With Nc1ccccc1Nc1cc(-c2ccccc2)nn1-c1cccc(Cl)c1 as the compound, how does the “activity change, negative = inhibition” value read?
Answer: inactive

Question: Which “activity change, negative = inhibition” value does the source give for Cc1csc(Nc2ccccc2)[n+]1-c1ccccc1 here?
Answer: inactive

Question: For Cc1ccc2c(c1)c1c3n2CCCN(Cc2ccccc2)C3CCC1 (configuration not stated), which “activity change, negative = inhibition” value is on record?
Answer: inactive

Question: With O=C(Cc1cccnc1)N1CC(=O)N2[C@H](C1)[C@H](c1ccc(C3=CCCC3)cc1)[C@@H]2CO as the compound, how does the “activity change, negative = inhibition” value read?
Answer: inactive

Question: With O=C(NC1CCCCC1)C(c1cccnc1)N(C(=O)CCl)c1cccc(Cl)c1 (configuration not stated) as the compound, how does the “activity change, negative = inhibition” value read?
Answer: inactive

Question: With COc1ccc(N=C2S/C(=C\c3ccc(Cl)c([N+](=O)[O-])c3)C(=O)N2CCN(C)C)cc1 as the compound, how does the “activity change, negative = inhibition” value read?
Answer: inactive

Question: Which “activity change, negative = inhibition” value does the source give for Cc1nn(-c2ccccc2)c(Cl)c1/C=C1\C(=O)N(C)C(=S)N1C here?
Answer: inactive

Question: Which “activity change, negative = inhibition” value does the source give for CCOc1cc(/C=N/N=C(N)N)ccc1OCc1ccc(Cl)cc1 here?
Answer: inactive

Question: Which “activity change, negative = inhibition” value does the source give for C[C@H](CO)N1C[C@H](C)[C@H](CN(C)Cc2ccc(C(F)(F)F)cc2)OCCCC[C@H](C)Oc2ccc(N(C)C)cc2C1=O here?
Answer: inactive

Question: With C[C@H](CO)N1C[C@H](C)[C@H](CN(C)Cc2ccc(Cl)c(Cl)c2)Oc2ccc(N(C)C)cc2C1=O as the compound, how does the “activity change, negative = inhibition” value read?
Answer: inactive

Question: With C/C(=N\Nc1nc2ccccc2[nH]1)c1ccc2c(c1)OCO2 as the compound, how does the “activity change, negative = inhibition” value read?
Answer: inactive

Question: COc1ccc(N2CCN(C3CCCCC3NS(=O)(=O)c3ccccc3)CC2)cc1 (configuration not stated) was tested. Which “activity change, negative = inhibition” value did it give?
Answer: inactive

Question: With C(=C\c1ccncc1)/c1ccncc1 as the compound, how does the “activity change, negative = inhibition” value read?
Answer: inactive

Question: S=C(c1ccc(-c2cccc(Cl)c2)o1)N1CCOCC1 was tested. Which “activity change, negative = inhibition” value did it give?
Answer: inactive

Question: CN1CCN(CCCN2c3ccccc3Sc3ccc(C(F)(F)F)cc32)CC1 was tested. Which “activity change, negative = inhibition” value did it give?
Answer: inactive

Question: How did the “activity change, negative = inhibition” value turn out when c1ccc2c(Nc3ccc4c(c3)OCCO4)c3c(nc2c1)CCCC3 was run?
Answer: inactive

Question: CN(C)c1ccc(C(CN)c2c[nH]c3ccccc23)cc1 (configuration not stated) was tested. Which “activity change, negative = inhibition” value did it give?
Answer: inactive

Question: How did the “activity change, negative = inhibition” value turn out when COc1ccc(OC)c(C2=NOC(C(=O)Nc3c(C)n(C)n(-c4ccccc4)c3=O)C2)c1 (configuration not stated) was run?
Answer: inactive

Question: With COc1ccc(CN2CC3(C2)CN(Cc2ccc4c(c2)OCO4)[C@H](CO)c2[nH]c4cc(OC)ccc4c23)cc1 as the compound, how does the “activity change, negative = inhibition” value read?
Answer: inactive

Question: For C[C@H](CO)N1C[C@H](C)[C@H](CN(C)CC2CC2)OCCCC[C@H](C)Oc2ccc(NC(=O)Nc3ccc4c(c3)OCO4)cc2C1=O, which “activity change, negative = inhibition” value is on record?
Answer: inactive

Question: Cc1[nH]n(-c2ccccc2)c(=O)c1N=Nc1c(O)cc(S(=O)(=O)N(C)C)c2ccccc12 was tested. Which “activity change, negative = inhibition” value did it give?
Answer: inactive

Question: COc1ccc2ccccc2c1-c1sc(Nc2ccccc2)n[n+]1-c1ccc(F)cc1 was tested. Which “activity change, negative = inhibition” value did it give?
Answer: inactive

Question: CCOc1ccc(/C=N/Nc2cc(N3CCOCC3)ncn2)c(O)c1 was tested. Which “activity change, negative = inhibition” value did it give?
Answer: inactive

Question: How did the “activity change, negative = inhibition” value turn out when CCN(CC)CCNc1cccc2sc3ccccc3c(=O)c12 was run?
Answer: inactive

Question: O=C(O)CCNc1ccc(NCCC(=O)O)c2c1C(=O)c1ccccc1C2=O was tested. Which “activity change, negative = inhibition” value did it give?
Answer: inactive

Question: CC(C)n1ncc2c(C(=O)Nc3ccc(S(N)(=O)=O)cc3)cc(C3CC3)nc21 was tested. Which “activity change, negative = inhibition” value did it give?
Answer: inactive

Question: For CCN1CCN(Cc2ccc(NC(=O)c3cc(NC(=O)c4nccnc4N)cc(OC)c3)cc2C(F)(F)F)CC1, which “activity change, negative = inhibition” value is on record?
Answer: inactive

Question: How did the “activity change, negative = inhibition” value turn out when Cc1cccc(Nc2cc(C)c3c(O)cccc3n2)c1C was run?
Answer: inactive

Question: With CC1=NN(c2ccccc2)C(=O)/C1=C/C=C/c1ccc(N(C)C)cc1 as the compound, how does the “activity change, negative = inhibition” value read?
Answer: inactive

Reference: PubChem BioAssay AID720495 (Broad Institute, 2013)
